Reference: US12544373B2, “Treatment of cancer, inflammatory diseases and autoimmune diseases” (Usher III Initiative, Inc., priority 2020, dated 2026)
Read-outs that look alike come from different tables or passages of the source.

Columns and labels:
Type in all cases: cell-based, human
PRXF PC-3 [1] = assay: CellTiter-Blue Cell Viability Assay (Example 2), prostate; settings: for T/C %: 72 h
Source text: (§1) The CellTiter-Blue® Cell Viability Assay was used to assess the viability of cells from various cancer cell lines, in the presence or absence of Compound 85 (at different concentrations). This assay provides a homogeneous, fluorometric method for estimating the number of viable cells present in multi-well plates. Viable cells retain the ability to reduce resazurin to resorufin, which is highly fluorescent. […] The fluorescence produced is proportional to the number of viable cells. There is a linear relationship between cell number and fluorescence.
(§2) Cancer cells (see Table 6) were harvested from exponential phase cultures, counted and plated in 96 well flat-bottom microtiter plates, at a cell density 6,000-20,000 cells/well, depending on the cell line's growth rate. The culture medium was supplemented with 10% (v/v) foetal calf serum and 50 μg/mL gentamicin (140 μL/well). Cultures were incubated at 37° C. and 5% CO2 in a humidified atmosphere.
(§3) Compound 85 was serially diluted in DMSO, and five Compound 85 concentrations in half-log increments were used: 0.03 μM, 0.09 μM, 0.30 μM, 1.0 μM, and 3.0 μM. After 24 h, 10 μL of Compound 85 (dissolved in DMSO) or control (DMSO) medium were added, in duplicates, and left on the cells for another 72 h. Compound 85 solutions were added to the assay plates using a Tecan Freedom EVO 200 robotic platform. The DMSO concentration was kept constant at 0.3% v/v across the assay plate.
(§4) After incubation of up to 72 hours, fluorescence (FU) was measured using the EnSpire® multimode plate reader (Perkin Elmer) (excitation λ=570 nm, emission λ=600 nm).
(§5) Cancer cell lines used: Compound 85's anti-cancer effect was tested in 20 human cancer-cell lines representing nine cancer types (Table 6).
(§6) The percentage of viable cells in the presence of Compound 85 (Test condition, T), at different concentrations, are presented in Table 7 and expressed as a percentage of the number of viable cells in the presence of DMSO without Compound 85 (Control condition, C).
(§7) The relative IC50 is determined as the Compound 85 concentration giving a response halfway between the maximum cell viability signal (i.e., a 100% cell viability, no Compound 85 response) and the minimal viability signal (i.e. maximum cell viability inhibition achieved by Compound 85), in a sigmoidal concentration-effect curve.
(§8) The absolute IC50 is determined as the concentration that is associated with a T/C ratio of 50%.

PRXF DU-145 [2] = assay: as above; settings: for T/C %: 72 h
Source text: as §1, §2, §3, §4, §5, §6, §7, §8

PRXF PC-3 [3] = assay: CellTiter-Blue 2D monolayer assay (Example 1), prostate; settings: for Test/Control (%): 72 h
Method: (§9) Compound 85 was assessed in 10 human tumor cell lines (see Table 3) for anti-cancer activity in vitro using a CellTiter-Blue® based 2D monolayer assay.
(§10) CellTiter-Blue® Cell Viability Assay: Tumor cells were grown at 37° C. in a humidified atmosphere with 5% CO2 in RPMI medium, supplemented with 10% (v/v) fetal calf serum and 50 μg/ml gentamicin (140 μl/well). Cultures were incubated at 37° C. and 5% CO2 in a humidified atmosphere. After 24 hours, 10 μl of Compound 85 was added, and left on the cells for another 72 hours (incubation period). Compound 85 was tested at 5 concentrations (0.003 μM, 0.03 μM, 0.3 μM, 3 μM, and 30 μM) and serially diluted in DMSO, mixed with cell culture medium, and added to the assay plates by using a Tecan Freedom EVO 200 robotic platform. The DMSO concentration was kept constant at 0.3% yip across the assay plate. Every 96 well plate included six DMSO-treated control wells and Compound 85-treated wells in duplicate at 5 concentrations. Viability of cells was quantified using the CellTiter-Blue® cell viability assay (Promega G8081). After incubation of cells, the CellTiter-Blue® reagent was brought to ambient temperature. Next, 20 μl of CellTiter-Blue® reagent were added to each well. After incubation tier up to 4 hours, fluorescence (FU) was measured using the EnSpire® multimode plate reader (Perkin Elmer) ([…]).
(§11) Data Evaluation: Sigmoidal concentration-response curves were fitted to the data points (test-versus-control; T/C values) obtained for each tumor model using 4 parameter non-linear curve fit (Charles River DRS Datawarehouse Software). Drug effects are expressed in terms of the percentage of the fluorescence signal, obtained by comparison of the mean signal in the treated wells with the mean signal of the untreated controls (T/C-value [%]) (Table 4). IC50 and IC70 values were reported as relative and absolute IC50 and IC70 values (Table 5). The absolute IC50 and IC70 values reflect the concentration of Compound 85 that achieves T/C=50% and T/C=30%, respectively. The relative IC50 value is the concentration of Compound 85 that gives a response half way between the top and bottom plateau of the sigmoidal concentration-response curve (inflection point of the curve).

PRXF DU-145 [4] = assay: as above; settings: for Test/Control (%): 72 h
Method: as §9, §10, §11

CNXF U-87 MG = assay: CellTiter-Blue 2D monolayer assay (Example 1), glioblastoma; settings: for Test/Control (%): 72 h
Method: as §9, §10, §11

CNXF 498 = assay: as above; settings: for Test/Control (%): 72 h
Method: as §9, §10, §11

Compound: CC(C)(O)Cn1nc(-c2ccccc2)c2c(Cl)c(-c3ccccc3)nnc21 [Compound 85]
- Absolute IC70 (PRXF PC-3 [1]): 1.349 µM
- Relative IC70 (PRXF PC-3 [1]): 1.326 µM
- T/C % (PRXF PC-3 [1]; 0.03 μM): 104%
- T/C % (PRXF PC-3 [1]; 0.095 μM): 103%
- T/C % (PRXF PC-3 [1]; 0.3 μM): 103%
- T/C % (PRXF PC-3 [1]; 0.95 μM): 2%
- T/C % (PRXF PC-3 [1]; 3.0 μM): 1%
- IC50 (PRXF PC-3 [1]; read-out: Absolute IC50): 1.1 µM
- IC50 (PRXF PC-3 [1]; read-out: Relative IC50): 1.08 µM
- Absolute IC70 (PRXF DU-145 [2]): 1.528 µM
- Relative IC70 (PRXF DU-145 [2]): 1.376 µM
- T/C % (PRXF DU-145 [2]; 0.03 μM): 100%
- T/C % (PRXF DU-145 [2]; 0.095 μM): 110%
- T/C % (PRXF DU-145 [2]; 0.3 μM): 102%
- T/C % (PRXF DU-145 [2]; 0.95 μM): 11%
- T/C % (PRXF DU-145 [2]; 3.0 μM): 6%
- IC50 (PRXF DU-145 [2]; read-out: Absolute IC50): 1.09 µM
- IC50 (PRXF DU-145 [2]; read-out: Relative IC50): 1.01 µM
- Rel. IC70 (PRXF PC-3 [3]): 1.326 µM
- Test/Control (%) (PRXF PC-3 [3]; 0.003 μM): 104%
- Test/Control (%) (PRXF PC-3 [3]; 0.03 μM): 103%
- Test/Control (%) (PRXF PC-3 [3]; 0.3 μM): 103%
- Test/Control (%) (PRXF PC-3 [3]; 3 μM): 2%
- Test/Control (%) (PRXF PC-3 [3]; 30 μM): 1%
- Abs. IC70 (PRXF PC-3 [3]; T/C=30%): 1.349 µM
- IC50 (PRXF PC-3 [3]; T/C=50%, read-out: Abs. IC50): 1.1 µM
- Bot. (%) (PRXF PC-3 [3]; bottom plateau of curve): 1%
- IC50 (PRXF PC-3 [3]; read-out: Rel. IC50): 1.08 µM
- Top (%) (PRXF PC-3 [3]; top plateau of curve): 103%
- Rel. IC70 (PRXF DU-145 [4]): 1.376 µM
- Test/Control (%) (PRXF DU-145 [4]; 0.003 μM): 100%
- Test/Control (%) (PRXF DU-145 [4]; 0.03 μM): 110%
- Test/Control (%) (PRXF DU-145 [4]; 0.3 μM): 102%
- Test/Control (%) (PRXF DU-145 [4]; 3 μM): 11%
- Test/Control (%) (PRXF DU-145 [4]; 30 μM): 6%
- Abs. IC70 (PRXF DU-145 [4]; T/C=30%): 1.528 µM
- IC50 (PRXF DU-145 [4]; T/C=50%, read-out: Abs. IC50): 1.09 µM
- Bot. (%) (PRXF DU-145 [4]; bottom plateau of curve): 6%
- IC50 (PRXF DU-145 [4]; read-out: Rel. IC50): 1 µM
- Top (%) (PRXF DU-145 [4]; top plateau of curve): 105%
- Rel. IC70 (CNXF U-87 MG): 0.987 µM
- Test/Control (%) (CNXF U-87 MG; 0.003 μM): 99%
- Test/Control (%) (CNXF U-87 MG; 0.03 μM): 102%
- Test/Control (%) (CNXF U-87 MG; 0.3 μM): 102%
- Test/Control (%) (CNXF U-87 MG; 3 μM): 1%
- Test/Control (%) (CNXF U-87 MG; 30 μM): 4%
- Abs. IC70 (CNXF U-87 MG; T/C=30%): 0.994 µM
- IC50 (CNXF U-87 MG; T/C=50%, read-out: Abs. IC50): 0.94 µM
- Bot. (%) (CNXF U-87 MG; bottom plateau of curve): 3%
- IC50 (CNXF U-87 MG; read-out: Rel. IC50): 0.935 µM
- Top (%) (CNXF U-87 MG; top plateau of curve): 101%
- Rel. IC70 (CNXF 498): 1.868 µM
- Test/Control (%) (CNXF 498; 0.003 μM): 106%
- Test/Control (%) (CNXF 498; 0.03 μM): 107%
- Test/Control (%) (CNXF 498; 0.3 μM): 113%
- Test/Control (%) (CNXF 498; 3 μM): 2%
- Test/Control (%) (CNXF 498; 30 μM): 1%
- Abs. IC70 (CNXF 498; T/C=30%): 1.901 µM
- IC50 (CNXF 498; T/C=50%, read-out: Abs. IC50): 1.74 µM
- Bot. (%) (CNXF 498; bottom plateau of curve): 1%
- IC50 (CNXF 498; read-out: Rel. IC50): 1.71 µM
- Top (%) (CNXF 498; top plateau of curve): 109%
